Structures can show the parent of a compound that is named as a salt.
Legend:
[1] = test system: OCI-AML3 (NPMc+ mutant type); test: In vitro growth inhibition (GI50), OCI-AML3; type: cell-based; settings: Homo sapiens, OCI-AML-3; Cell lines of leukemia; read-out: GI 50 OCI- AML3 NPMc+
Text: (§1) 1. Cell Lines and Cell Cultures
(§2) Tumor cell line is an effective cell model for studying the inhibition of tumor cell growth or proliferation in vitro. In the present invention, a representative tumor cell line was selected to determine the cell growth inhibition activity of the present compound. All cell lines used were from ATCC, DSMZ, and the Cell Bank of the Chinese Academy of Sciences. Cell culture conditions and methods were in accordance with the requirements of each cell line. Cells were subcultured in vitro for no more than 3 passages each time, and as required, single-clone purification and identification of cell lines could be carried out.
(§3) The cell culture media used were RPMI1640 (Gibco), MEM (Gibco), McCOY'S5A (Gibco), and IMDM (Gibco). The complete medium was prepared by supplement with 5˜20% fetal calf serum (Gibco), 1% double-antibiotics (10000 units/mL penicillin and 10000 units/mL), 2 mM glutamine or 1 mM sodium pyruvate, respectively.
(§4) The human acute […] monomonocyte leukemia cell line MV4-11 (FLT3 ITD+/+ mutant type, ATCC) was cultured in a complete medium comprising 1×IMDM and 10% FBS. Human acute myeloid leukemia cell line MOLM-13 (FLT3 ITD+/− mutant type, DSMZ), human acute lymphoblastic leukemia cell line RS4; 11 (FLT3 wild type, ATCC), human chronic granulocytic leukemia cell line K562 (FLT3 negative expression, positive expression of BCR-ABL fusion protein, ATCC), human promyelocytic leukemia cell line HL-60 (FLT3 wild type, ATCC), human B lymphoblastic leukemia cell line RAMOS (positive expression of Brutons tyrosine protein kinase, ATCC), human acute myeloid leukemia cell line Kasumi-1 (c-Kit N822K mutant type, ATCC), human acute monocytic leukemia cell line U937 (FLT3 wild-type, ATCC), human acute myeloid leukemia cell line OCI-AML3 (NPMc+ mutant type, ATCC), human acute myeloid leukemia cell line KG-1 (expressing FGFR1OP2-FGFR1 fusion protein, ATCC) were cultured in a complete medium comprising 1×RPMI1640 and 10% FBS, respectively.
(§5) The suspension cells were collected by centrifugation. The supernatant was discarded and the cell pellet was resuspended and counted. Different cell concentrations (5˜10×10^4 cells/mL) were prepared according to the growth cycle of each cell line and then seeded on a 96-well plate (Corning), 100 μL/well. The cells were incubated overnight at 37° C., 5% CO2. The compounds were added to the cells on the second day with 2 wells in parallel. The final concentration of organic solvent shall not exceed 1%. The cells were continually incubated for 3 to 5 days, and then subjected to MTT assay.
(§6) The compound was stored in a concentration of 10 mM at −20° C. and diluted to 2- or 10-fold series prior to use.
(§7) Dojindo CCK8 reagent kit was used as MTT assay. […] FC meter was used as microplate reader.
(§8) For adherent cells, culture medium was removed and immediately replaced with the fresh prepared medium which contains 10% CCK8 reagent (100 μL/well). For the suspension cells, CCK8 was directly added to 10% of the final concentration. The cells were continually incubated for 1˜4 h. […] The experiment was independently repeated 1˜3 times, and subject to biological statistical analysis. 4. Experimental Results
(§9) The initial concentration of the compound was 5,000 nM, then it was serially diluted by 2-fold or 10-fold to 0.01 nM. The GI50 value of each test compound was calculated according to the GI50 assay and calculation method. The experiments were repeated 1 to 3 times, and data were subjected to biological statistical analysis.

[2] = test system: K562 (FLT3 negative expression, positive expression of BCR-ABL fusion protein); test: In vitro growth inhibition (GI50), K562; type: cell-based; settings: Homo sapiens, Cell lines of leukemia, read-out: GI 50 K562 BCR-ABL
Text: as §1, §2, §3, §4, §5, §6, §7, §8, §9

[3] = test system: Kasumi-1 (c-Kit N822K mutant type); test: In vitro growth inhibition (GI50), Kasumi-1; type: cell-based; settings: Homo sapiens, Cell lines of leukemia, read-out: GI 50 Kasumi-1 Kit (N822K)
Text: as §1, §2, §3, §4
as §5, with “Adherent cells were digested with 0.25% pancreatin-EDTA (Gibco). The suspension” for “The suspension”
(§10) The compound of the present invention and the control compound were dissolved in DMSO (Sigma) respectively, with the purity of more than 98%. The compound was stored in a concentration of 10 mM at −20° C. and diluted to 2- or 10-fold series prior to use.
(§11) Dojindo CCK8 reagent kit was used as MTT assay. THERMO […] FC meter was used as microplate reader.
(§12) For adherent cells, culture medium was removed and immediately replaced with the fresh prepared medium which contains 10% CCK8 reagent (100 μL/well). For the suspension cells, CCK8 was directly added to 10% of the final concentration. The cells were continually incubated for 1˜4 h. When a dark yellow color could be observed in the solvent control wells, the absorbance value at OD450 nm was measured and the cell growth rate was calculated according to the following formula: Cell Growth Rate (%)=100*(T−T0)/(C−T0) T=optical density of drug treatment cell well—optical density of blank control well; T0=optical density of cell well before drug treatment—optical density of blank control well; C=optical density of cell well of solvent control group—optical density of blank control well. The concentration value of 50% inhibition of cell growth (GI50) was calculated according to the drug concentration and cell growth rate curve. […]

[4] = test system: RS4; 11 (FLT3 wild type); test: In vitro growth inhibition (GI50), RS4; 11; type: cell-based, human; settings: Homo sapiens, RS4-11; Cell lines of leukemia; read-out: GI 50 RS4: 11 FLT3 (WT)
Text: as §1, §2, §3, §4, §5, §6, §7, §8, §9

[5] = test system: RAMOS (positive expression of Brutons tyrosine protein kinase); test: In vitro growth inhibition (GI50), RAMOS; type: cell-based; settings: Homo sapiens, Cell lines of leukemia, read-out: GI 50 Ramos BTK
Text: as §1, §2, §3, §4, §5, §6, §7, §8, §9

[6] = test system: MOLM-13 (FLT3 ITD+/− mutant type); test: In vitro growth inhibition (GI50), MOLM-13; type: cell-based, human; settings: Homo sapiens, MOLM-13; Cell lines of leukemia; read-out: GI 50 MOLM-13 FLT3 (ITD+/−)
Text: as §1, §2, §3, §4, §5, §6, §7, §8, §9

[7] = test system: KG-1 (expressing FGFR1OP2-FGFR1 fusion protein); test: In vitro growth inhibition (GI50), KG-1; type: cell-based; settings: Homo sapiens; Cell lines of leukemia; read-out: GI 50 KG-1 FGFR1OP 2-FGFR1
Text: as §1, §2, §3, §4, §5, §6, §7, §8, §9

[8] = test system: U937 (FLT3 wild-type); test: In vitro growth inhibition (GI50), U937; type: cell-based; settings: Homo sapiens, U-937; Cell lines of leukemia; read-out: GI 50 U937 FLT 3(WT)
Text: as §1, §2, §3, §4, §5, §6, §7, §8, §9

[9] = test system: MV4-11 (FLT3 ITD+/+ mutant type); test: In vitro growth inhibition (GI50), MV4-11; type: cell-based, human; settings: Homo sapiens, MV4-11; Cell lines of leukemia; read-out: GI 50 MV4-11 FLT3 (ITD +/+)
Text: as §1, §2, §3, §4, §5, §6, §7, §8, §9

[10] = test system: HL-60 (FLT3 wild type); test: In vitro growth inhibition (GI50), HL-60; type: cell-based; settings: Homo sapiens, Cell lines of leukemia, read-out: GI 50 HL60 FLT3 (WT)
Text: as §1, §2, §3, §4
as §5, with “Adherent cells were digested with 0.25% pancreatin-EDTA (Gibco). The suspension” for “The suspension”
as §10, §11, §12

Row | SMILES | GI50 [1] | GI50 [2] | GI50 [4] | GI50 [5] | GI50 [6] | GI50 [8] | GI50 [9] | GI50 [10] | GI50 [3] | GI50 [7]
1 | Nc1cc(C(F)(F)F)nn1C(=O)Nc1ccc(-n2cnc3ccccc32)cc1 [Compound 115, 5-amino-3-trifluoromethylpyrazol-1-carboxylic acid (4-benzimidazol-1-yl-phenyl)-amide] | 0.1 to 1 µM | > 1 µM | > 1 µM | > 1 µM | 0.1 to 1 µM | > 1 µM | 0.1 to 1 µM | > 1 µM | > 1 µM | > 1 µM
2 | Cc1csc(NC(=O)Nc2ccc(-n3cnc4ccccc43)cc2)n1 [Compound 61, 1-(4-benzimidazol-1-yl-phenyl)-3-(4-methyl-thiazol-2-yl)-urea] | > 1 µM | > 1 µM | > 1 µM | > 1 µM | > 1 µM | > 1 µM | > 1 µM | > 1 µM | > 1 µM | > 1 µM
3 | CC(C)(C)c1cc(NC(=O)Nc2ccc(-c3cn4c(n3)sc3cc(OCCN5CCOCC5)ccc34)cc2)no1 [AC220, N-(5-tert-butyl-isoxazol-3-yl)-N′-{4-[7-(2-morpholin-4-yl-ethoxy)imidazo[2,1-b][1,3]benzothiazol-2-yl]phenyl}urea dihydrochloride, reference compound] | > 1 µM | – | – | > 1 µM | – | – | – | – | – | > 1 µM
4 | Cc1cc(N)nn1C(=O)Nc1ccc(-n2cnc3ccccc32)cc1 [Compound 113, 3-amino-5-methylpyrazol-1-carboxylic acid (4-benzimidazol-1-yl-phenyl)-amide] | > 1 µM | > 1 µM | > 1 µM | > 1 µM | – | > 1 µM | – | > 1 µM | > 1 µM | > 1 µM

Second part, led by results:

Row | GI50 [1] | GI50 [2] | GI50 [4] | GI50 [5] | GI50 [6] | GI50 [8] | GI50 [9] | GI50 [10] | SMILES | GI50 [3] | GI50 [7]
5 | > 1 µM | > 1 µM | > 1 µM | > 1 µM | 0.0001 to 0.001 µM | > 1 µM | 0.0001 to 0.001 µM | > 1 µM | CC(C)(C)c1cc(NC(=O)Nc2ccc(-n3cnc4cc(OCC#N)ccc43)cc2)[nH]n1 [Compound 83, 1-(5-tert-butyl-2H-pyrazol-3-yl)-3-[4-(5-cyanomethoxy-benzimidazol-1-yl)-phenyl]-urea] | > 1 µM | > 1 µM
6 | > 1 µM | 0.1 to 1 µM | 0.1 to 1 µM | > 1 µM | 0.0001 to 0.001 µM | > 1 µM | 0.0001 to 0.001 µM | > 1 µM | CC(C)(C)c1cc(NC(=O)Nc2ccc(-n3cnc4cc(F)ccc43)cc2)[nH]n1 [Compound 69, 1-(5-tert-butyl-2H-pyrazol-3-yl)-3-[4-(5-fluoro-benzimidazol-1-yl)-phenyl]-urea] | > 1 µM | > 1 µM
7 | > 1 µM | > 1 µM | > 1 µM | > 1 µM | 0.01 to 0.1 µM | > 1 µM | 0.01 to 0.1 µM | > 1 µM | CC(C)(C)c1cc(NC(=O)Nc2ccc(-n3cnc4ccccc43)cc2)n(-c2ccc(OC(F)(F)F)cc2)n1 [Compound 107, 1-(4-benzimidazol-1-yl-phenyl)-3-[5-tert-butyl-2-(4-trifluoromethoxy-phenyl)-2H-pyrazol-3-yl]-urea] | > 1 µM | > 1 µM
8 | > 1 µM | > 1 µM | > 1 µM | > 1 µM | 0.0001 to 0.001 µM | > 1 µM | 0.0001 to 0.001 µM | > 1 µM | CCOc1ccc2c(c1)ncn2-c1ccc(NC(=O)Nc2cc(C(C)(C)C)on2)cc1 [Compound 6, 1-(5-tert-butyl-isoxazol-3-yl)-3-[4-(5-ethoxyl-benzimidazol-1-yl)-phenyl]-urea] | > 1 µM | > 1 µM
9 | > 1 µM | – | > 1 µM | > 1 µM | 0.0001 to 0.001 µM | > 1 µM | 0.0001 to 0.001 µM | > 1 µM | Cn1nc(C(C)(C)C)cc1NC(=O)Nc1ccc(-n2cnc3cc(OCCN4CCOCC4)ccc32)cc1 [Compound 102] | > 1 µM | –
10 | > 1 µM | 0.1 to 1 µM | 0.1 to 1 µM | – | 0.0001 to 0.001 µM | > 1 µM | 0.0001 to 0.001 µM | > 1 µM | CC(C)(C)c1cc(NC(=O)Nc2ccc(-n3cnc4cc(OCCOCCO)ccc43)cc2)no1 [Compound 14, 1-(5-tert-butyl-isoxazol-3-yl)-3-(4-{5-[2-(2-hydroxy-ethoxyl)-ethoxyl]-benzimidazol-1-yl}-phenyl)-urea] | > 1 µM | > 1 µM
11 | > 1 µM | – | > 1 µM | > 1 µM | 0.0001 to 0.001 µM | > 1 µM | 0.0001 to 0.001 µM | > 1 µM | COCCOc1ccc2c(c1)ncn2-c1ccc(NC(=O)Nc2cc(C(C)(C)C)nn2C)cc1 [Compound 101, 1-(5-tert-butyl-2-methyl-2H-pyrazol-3-yl)-3-{4-[5-(2-methoxyl-ethoxyl)-benzimidazol-1-yl]-phenyl}urea] | > 1 µM | –
